From patent publication US8883782B2, “Spiro-tetracyclic ring compounds as beta-secretase modulators and methods of use” (Amgen Inc., priority 2010, dated 2014) come the findings set out here.

This assay addresses Beta Secretase enzyme (BACE) (Homo sapiens, UniProt P56817). Description: In vitro enzymatic BACE FRET (fluorescence resonance energy transfer) assay. The format is biochemical. The procedure: In Vitro Enzymatic Bace Fret (Fluorescence Resonance Energy Transfer) Assay (Enzyme Assay Data in the Example Table I)
The assay buffer used in this screen is 0.05 M acetate, pH 4.2, 10% DMSO final, 100 uM genapol (which is a nonionic detergent, below its Critical Micelle Concentration). […] This assay is effectively started by the addition of FRET substrate (50 nM) and the combination is incubated for one hour. The FRET assay is terminated with by addition of Tris buffer, which raises the pH to neutrality, and the fluorescence is determined. The FRET substrate is a peptide with commercially available fluorophore and quencher, on opposite sides of the BACE cleavage site.

Where [1] appears, read: average IC50, enzyme assay, read-out: BACE 1 FRET assay.

SMILES strings stand for the structures. Read-outs that look alike come from different tables or passages of the source.

Sequence of Beta Secretase enzyme (BACE) (P56817 46-501, species assumed): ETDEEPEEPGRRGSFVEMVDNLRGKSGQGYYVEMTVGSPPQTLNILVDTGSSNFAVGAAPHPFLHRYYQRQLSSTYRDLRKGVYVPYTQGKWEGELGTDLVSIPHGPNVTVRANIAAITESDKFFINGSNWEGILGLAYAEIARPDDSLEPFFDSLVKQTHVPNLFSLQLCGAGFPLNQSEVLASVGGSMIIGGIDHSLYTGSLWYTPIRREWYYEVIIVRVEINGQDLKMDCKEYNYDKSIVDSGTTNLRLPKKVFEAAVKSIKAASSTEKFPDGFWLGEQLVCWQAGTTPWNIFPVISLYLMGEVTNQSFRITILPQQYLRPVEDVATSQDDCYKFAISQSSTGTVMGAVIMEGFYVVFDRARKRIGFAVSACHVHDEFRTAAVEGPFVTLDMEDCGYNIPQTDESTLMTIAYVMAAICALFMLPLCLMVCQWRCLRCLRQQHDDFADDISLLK

With `NC1=N[C@]2(CO1)c1cc(C3=CCOCC3)ccc1Oc1ccc(-c3cccnc3F)cc12` [Example 136, (R)-2′-(3,6-dihydro-2H-pyran-4-yl)-7′-(2-fluoropyridin-3-yl)-5H-spiro[oxazole-4,9′-xanthen]-2-amine 2,2,2-trifluoroacetate], under “BACE 1 FRET assay (uM)”, the IC50 is 0.0026 µM.

For `NC1=N[C@@]2(CO1)c1cc(-c3cccnc3F)ccc1Oc1cnc(N3CCC(F)(F)CC3)cc12` [Example 137, (S)-3-(4,4-difluoropiperidin-1-yl)-7-(2-fluoropyridin-3-yl)-5′H-spiro[chromeno[2,3-c]pyridine-5,4′-oxazol]-2′-amine], the IC50 (BACE 1 FRET assay (uM)) stood at 0.0007 µM.

As to `NC1=N[C@@]2(CO1)c1cc(-c3cccnc3F)ccc1Oc1cnc(N3CCC(F)(F)C3)cc12` [Example 140, (S)-3-(3,3-difluoropyrrolidin-1-yl)-7-(2-fluoropyridin-3-yl)-5′H-spiro[chromeno[2,3-c]pyridine-5,4′-oxazol]-2′-amine], the IC50 (BACE 1 FRET assay (uM)) came to 0.0006 µM.

In the case of `NC1=N[C@@]2(CO1)c1cc(-c3cccnc3F)ccc1Oc1c2cc(-c2ccnc(F)c2)nc1F` [Example 152, (5S)-1-fluoro-7-(2-fluoro-3-pyridinyl)-3-(2-fluoro-4-pyridinyl)spiro[chromeno[2,3-c]pyridine-5,4′-[1,3]oxazol]-2′-amine], the IC50 under setting [1] turned out to be 0.002 µM.

As to `CC(C)(C)C#Cc1cc2c(cn1)Oc1ccc(-c3c(F)ccnc3F)cc1[C@@]21COC(N)=N1` [Example 165, (5S)-7-(2,4-difluoro-3-pyridinyl)-3-(3,3-dimethyl-1-butyn-1-yl)spiro[chromeno[2,3-c]pyridine-5,4′-[1,3]oxazol]-2′-amine], the IC50 under setting [1] came to 0.002 µM.

For the compound `NC1=N[C@@]2(CO1)c1cc(-c3cncc(F)c3)ccc1Oc1c(F)cc([C@H]3CCOC3)cc12` [Example 296, (4S)-4′-fluoro-7′-(5-fluoro-3-pyridinyl)-2′-((3R)-tetrahydro-3-furanyl)spiro[1,3-oxazole-4,9′-xanthen]-2-amine], under setting [1], the IC50 amounted to 0.0072 µM.

On to `NC1=N[C@@]2(CO1)c1cc(-c3cncc(F)c3)ccc1Oc1c(F)cc([C@@H]3CCOC3)cc12` [Example 297, (4S)-4′-fluoro-7′-(5-fluoro-3-pyridinyl)-2′-((3S)-tetrahydro-3-furanyl)spiro[1,3-oxazole-4,9′-xanthen]-2-amine], for which the IC50 under setting [1] is 0.0052 µM.

With `NC1=N[C@@]2(CO1)c1cc(-c3cccnc3)c(F)cc1Oc1c(F)cc(C3=CCCOC3)cc12` [Example 298, (4S)-7′-(5,6-dihydro-2H-pyran-3-yl)-3′,5′-difluoro-2′-(3-pyridinyl)spiro[1,3-oxazole-4,9′-xanthen]-2-amine], the IC50 under setting [1] was found to be 0.0968 µM.

`NC1=N[C@@]2(CO1)c1cc(-c3cccnc3F)ccc1Oc1c(F)cc([C@H]3CCOC3)cc12` [Example 299, (4S)-4′-fluoro-7′-(2-fluoro-3-pyridinyl)-2′-((3R)-tetrahydro-3-furanyl)spiro[1,3-oxazole-4,9′-xanthen]-2-amine]: under setting [1], the IC50 is 0.0028 µM.

As to `NC1=N[C@@]2(CO1)c1cc(-c3cccnc3F)ccc1Oc1c(F)cc([C@@H]3CCOC3)cc12` [Example 300, (4S)-4′-fluoro-7′-(2-fluoro-3-pyridinyl)-2′-((3S)-tetrahydro-3-furanyl)spiro[1,3-oxazole-4,9′-xanthen]-2-amine], the IC50 under setting [1] is 0.0023 µM.

Regarding `NC1=N[C@@]2(CO1)c1cc(-c3ccccc3)ncc1Oc1c(F)cc(C3=CCOCC3)cc12` [Example 309, (5S)-7-(3,6-dihydro-2H-pyran-4-yl)-9-fluoro-3-phenylspiro[chromeno[2,3-c]pyridine-5,4′-[1,3]oxazol]-2′-amine], the IC50 under setting [1] amounted to 0.0172 µM.

Consider `NC1=N[C@@]2(CO1)c1cc(-c3c(F)ccnc3F)ccc1Oc1cnc(-c3ccnc(F)c3)cc12` [Example 397, (5S)-7-(2,4-difluoro-3-pyridinyl)-3-(2-fluoro-4-pyridinyl)spiro[chromeno[2,3-c]pyridine-5,4′-[1,3]oxazol]-2′-amine], for which the IC50 under setting [1] stood at 0.002 µM.

As for `NC1=N[C@@]2(CO1)c1cc(-c3c(F)ccnc3F)ccc1Oc1cnc(-c3ccncc3)cc12` [Example 398, (5S)-7-(2,4-difluoro-3-pyridinyl)-3-(4-pyridinyl)spiro[chromeno[2,3-c]pyridine-5,4′-[1,3]oxazol]-2′-amine], the IC50 under setting [1] worked out at 0.002 µM.

In the case of `NC1=N[C@@]2(CO1)c1cc(-c3c(F)ccnc3F)ccc1Oc1cnc(Cl)cc12` [Example 399, (5S)-3-chloro-7-(2,4-difluoro-3-pyridinyl)spiro[chromeno[2,3-c]pyridine-5,4′-[1,3]oxazol]-2′-amine], the IC50 under setting [1] was determined as 0.0599 µM.

Turning to `NC1=N[C@@]2(CO1)c1cc(-c3ccc(F)cc3)ccc1Oc1cnc(C3CCOCC3)cc12` [Example 400, (5S)-7-(4-fluorophenyl)-3-(tetrahydro-2H-pyran-4-yl)spiro[chromeno[2,3-c]pyridine-5,4′-[1,3]oxazol]-2′-amine], the IC50 under setting [1] is 0.0709 µM.

As for `NC1=N[C@@]2(CO1)c1cc(-c3cccc(Cl)c3)ccc1Oc1cnc(N3CCC(F)(F)C3)cc12` [Example 432, (5S)-7-(3-chlorophenyl)-3-(3,3-difluoro-1-pyrrolidinyl)spiro[chromeno[2,3-c]pyridine-5,4′-[1,3]oxazol]-2′-amine], the IC50 under setting [1] turned out to be 0.002 µM.

As for `NC1=N[C@]2(CO1)c1cc(-c3cccc(Cl)c3)ccc1Oc1cnc(N3CCC(F)(F)C3)cc12` [Example 433, (5R)-7-(3-chlorophenyl)-3-(3,3-difluoro-1-pyrrolidinyl)spiro[chromeno[2,3-c]pyridine-5,4′-[1,3]oxazol]-2′-amine], the IC50 under setting [1] is 0.025 µM.

For `NC1=N[C@@]2(CO1)c1cc(-c3cccnc3)ccc1Oc1c2cc(-c2ccnc(F)c2)nc1F` [Example 491, (5S)-1-fluoro-3-(2-fluoro-4-pyridinyl)-7-(3-pyridinyl)spiro[chromeno[2,3-c]pyridine-5,4′-[1,3]oxazol]-2′-amine], the IC50 under setting [1] is 0.002 µM.

Take `Cc1ncc(-c2cc3c(cn2)Oc2ccc(-c4cccnc4F)cc2[C@@]32COC(N)=N2)cn1` [Example 546, (5S)-7-(2-fluoro-3-pyridinyl)-3-(2-methyl-5-pyrimidinyl)spiro[chromeno[2,3-c]pyridine-5,4′-[1,3]oxazol]-2′-amine]: under setting [1], the IC50 turned out to be 0.0103 µM.

Take `NC1=N[C@@]2(CO1)c1cc(-c3ccnc(F)c3)ccc1Oc1cnc(C3=CCOCC3)cc12` [Example 547, (5S)-3-(3,6-dihydro-2H-pyran-4-yl)-7-(2-fluoro-4-pyridinyl)spiro[chromeno[2,3-c]pyridine-5,4′-[1,3]oxazol]-2′-amine]: under setting [1], the IC50 worked out at 0.0261 µM.

For `NC1=N[C@@]2(CO1)c1cc(-c3ccnc(F)c3)ccc1Oc1cnc(-c3ccnc(F)c3)cc12` [Example 548, (5S)-3,7-bis(2-fluoro-4-pyridinyl)spiro[chromeno[2,3-c]pyridine-5,4′-[1,3]oxazol]-2′-amine], the IC50 under setting [1] was 0.055 µM.

With `NC1=N[C@@]2(CO1)c1cc(-c3cc(F)cnc3F)ccc1Oc1cnc(-c3ccnc(F)c3)cc12` [Example 549, (5S)-7-(2,5-difluoro-3-pyridinyl)-3-(2-fluoro-4-pyridinyl)spiro[chromeno[2,3-c]pyridine-5,4′-[1,3]oxazol]-2′-amine], the IC50 under setting [1] was found to be 0.029 µM.

On to `NC1=N[C@@]2(CO1)c1cc(-c3c(F)ccnc3F)ccc1Oc1c(F)cc(C3=CCOCC3)cc12` [Example 565, (4S)-7′-(2,4-difluoro-3-pyridinyl)-2′-(3,6-dihydro-2H-pyran-4-yl)-4′-fluoro spiro[1,3-oxazole-4,9′-xanthen]-2-amine], for which the IC50 under setting [1] worked out at 0.002 µM.

Regarding `CC(C)(C#N)COc1cc(F)c2c(c1)[C@]1(COC(N)=N1)c1cc(-c3c(F)ccnc3F)ccc1O2` [Example 566, 3-(((4S)-2-amino-7′-(2,4-difluoro-3-pyridinyl)-4′-fluorospiro[1,3-oxazole-4,9′-xanthen]-2′-yl)oxy)-2,2-dimethylpropanenitrile], the IC50 under setting [1] amounted to 0.002 µM.

Take `NC1=N[C@@]2(CO1)c1cc(-c3cccnc3F)ccc1Oc1cnc(-c3cncs3)cc12` [Example 576, (5S)-7-(2-fluoro-3-pyridinyl)-3-(1,3-thiazol-5-yl)spiro[chromeno[2,3-c]pyridine-5,4′-[1,3]oxazol]-2′-amine]: the IC50 under setting [1] amounted to 0.0046 µM.

Regarding `CC1(C#Cc2cnc3c(c2)[C@]2(CSC(N)=N2)c2cc(-c4cccnc4F)ccc2O3)COC1` [Example 586, (5S)-7-(2-fluoro-3-pyridinyl)-3-((3-methyl-3-oxetanyl)ethynyl)spiro[chromeno[2,3-b]pyridine-5,4′-[1,3]thiazol]-2′-amine], the IC50 under setting [1] turned out to be 0.002 µM.

Take `NC1=N[C@@]2(CS1)c1cc(-c3cccnc3F)ccc1Oc1ncc(-c3cccnc3F)cc12` [Example 587, (5S)-3,7-bis (2-fluoro-3-pyridinyl)spiro[chromeno[2,3-b]pyridine-5,4′-[1,3]thiazol]-2′-amine]: the IC50 under setting [1] stood at 0.002 µM.

As to `NC1=N[C@@]2(CS1)c1cc(-c3cccc(Cl)c3)ccc1Oc1cnc(Cl)cc12` [Example 593, (5S)-3-chloro-7-(3-chlorophenyl)spiro[chromeno[2,3-c]pyridine-5,4′-[1,3]thiazol]-2′-amine], under setting [1], the IC50 was found to be 0.0316 µM.

Take `NC1=N[C@@]2(CS1)c1cc(-c3cccnc3F)ccc1Oc1cnc(Cl)cc12` [Example 594, (5S)-3-chloro-7-(2-fluoro-3-pyridinyl)spiro[chromeno[2,3-c]pyridine-5,4′-[1,3]thiazol]-2′-amine]: under setting [1], the IC50 amounted to 0.0531 µM.

As for `NC1=N[C@@]2(CS1)c1cc(-c3cncc(F)c3)ccc1Oc1cnc(Cl)cc12` [Example 595, (5S)-3-chloro-7-(5-fluoro-3-pyridinyl)spiro[chromeno[2,3-c]pyridine-5,4′-[1,3]thiazol]-2′-amine], under setting [1], the IC50 is 0.142 µM.
